Assay results taken from PubChem BioAssay AID248 (DTP/NCI, 2004).
“And” between values parts separate entries of the source, which are not always exact repeats. Equal values may be shown once. Inconclusive results and toxic doses are left out.

System: L1210 leukemia ip in BDF1 mice, survival T/C
Assay: NCI In Vivo Anticancer Drug Screen. Data for tumor model L1210 Leukemia (intraperitoneal) in B6D2F1 (BDF1) mice
Conditions: endpoint: mean survival time, higher = longer survival
How it was run: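 Mice bearing the transplanted tumor received compound or vehicle. Survival of the treated group was divided by that of the vehicle-treated control group to give the ratio.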

[1] = dose: 200.0 mg/kg/injection, schedule: Q01DX001 (ip), vehicle: carboxymethylcellulose (CMC)
[2] = dose: 75.0 mg/kg/injection, schedule: Q01DX001 (ip), vehicle: saline
[3] = dose: 150.0 mg/kg/injection, schedule: Q01DX001 (ip), vehicle: saline
[4] = dose: 300.0 mg/kg/injection, schedule: Q01DX001 (ip), vehicle: saline
[5] = dose: 100.0 mg/kg/injection, schedule: Q04DX003 (ip), vehicle: Klucel (hydroxypropylcellulose) (HPC)
[6] = dose: 200.0 mg/kg/injection, schedule: Q04DX003 (ip), vehicle: Klucel (hydroxypropylcellulose) (HPC)

## COC(=O)C1OC1c1ccc2c(c1)OCO2 (configuration not stated)
dose: 88.8 mg/kg/injection, schedule: Q01DX001 (ip), vehicle: carboxymethylcellulose (CMC)
  T/C: 97 % of control and 98 % of control
dose: 133.4 mg/kg/injection, schedule: Q01DX001 (ip), vehicle: carboxymethylcellulose (CMC)
  T/C: 95 % of control and 106 % of control
[1]
  T/C: 95 % of control and 97 % of control
dose: 300.0 mg/kg/injection, schedule: Q01DX001 (ip), vehicle: carboxymethylcellulose (CMC)
  T/C: 93 % of control and 101 % of control

## Nc1ccc(SCC(=O)O)cc1
[2]
  T/C: 94 % of control
[3]
  T/C: 100 % of control
[4]
  T/C: 92 % of control

## CNC(=O)Nc1ccc(Nc2ccccc2)cc1
dose: 100.0 mg/kg/injection, schedule: Q04DX002 (ip), vehicle: Klucel (hydroxypropylcellulose) (HPC)
  T/C: 105 % of control
dose: 200.0 mg/kg/injection, schedule: Q04DX002 (ip), vehicle: Klucel (hydroxypropylcellulose) (HPC)
  T/C: 97 % of control
dose: 400.0 mg/kg/injection, schedule: Q04DX002 (ip), vehicle: Klucel (hydroxypropylcellulose) (HPC)
  T/C: 91 % of control

## O=Cc1ccccc1B(O)O
dose: 50.0 mg/kg/injection, schedule: Q01DX009 (ip), vehicle: Klucel (hydroxypropylcellulose) (HPC)
  T/C: 96 % of control and 101 % of control
dose: 100.0 mg/kg/injection, schedule: Q01DX009 (ip), vehicle: Klucel (hydroxypropylcellulose) (HPC)
  T/C: 97 % of control and 100 % of control
[5]
  T/C: 98 % of control
dose: 200.0 mg/kg/injection, schedule: Q01DX009 (ip), vehicle: Klucel (hydroxypropylcellulose) (HPC)
  T/C: 105 % of control and 124 % of control
[6]
  T/C: 86 % of control

## Cc1cc(C)c([N+](=O)[O-])c(C)c1C(=O)C(C)C
dose: 100.0 mg/kg/injection, schedule: Q01DX009 (ip), vehicle: other
  T/C: 105 % of control
[5]
  T/C: 96 % of control
dose: 200.0 mg/kg/injection, schedule: Q01DX009 (ip), vehicle: other
  T/C: 101 % of control
[6]
  T/C: 100 % of control
dose: 400.0 mg/kg/injection, schedule: Q01DX009 (ip), vehicle: other
  T/C: 95 % of control
dose: 400.0 mg/kg/injection, schedule: Q04DX003 (ip), vehicle: Klucel (hydroxypropylcellulose) (HPC)
  T/C: 94 % of control

## O=C/C(Br)=C(/Br)C(=O)O
dose: 6.25 mg/kg/injection, schedule: Q04DX002 (ip), vehicle: saline
  T/C: 100 % of control
dose: 12.5 mg/kg/injection, schedule: Q04DX002 (ip), vehicle: saline
  T/C: 100 % of control
dose: 25.0 mg/kg/injection, schedule: Q04DX002 (ip), vehicle: saline + alcohol
  T/C: 114 % of control
dose: 25.0 mg/kg/injection, schedule: Q04DX002 (ip), vehicle: saline
  T/C: 111 % of control

## CCCN=C(N)c1ccc(NC(=O)c2ccc(C(=O)Nc3ccc(C(N)=NCCC)cc3)cc2)cc1
dose: 0.16 mg/kg/injection, schedule: Q01DX Z (ip), vehicle: carboxymethylcellulose (CMC)
  T/C: 105 % of control
dose: 0.31 mg/kg/injection, schedule: Q01DX Z (ip), vehicle: carboxymethylcellulose (CMC)
  T/C: 113 % of control
dose: 1.25 mg/kg/injection, schedule: Q01DX Z (ip), vehicle: carboxymethylcellulose (CMC)
  T/C: 211 % of control and 257 % of control
dose: 2.5 mg/kg/injection, schedule: Q01DX Z (ip), vehicle: carboxymethylcellulose (CMC)
  T/C: 190 % of control
dose: 3.0 mg/kg/injection, schedule: Q01DX001 (ip), vehicle: carboxymethylcellulose (CMC)
  T/C: 114 % of control
dose: 10.0 mg/kg/injection, schedule: Q01DX001 (ip), vehicle: carboxymethylcellulose (CMC)
  T/C: 169 % of control
dose: 10.0 mg/kg/injection, schedule: Q01DX001 (ip), vehicle: other
  T/C: 157 % of control
dose: 10.0 mg/kg/injection, schedule: Q01DX Z (ip), vehicle: carboxymethylcellulose (CMC)
  T/C: 113 % of control
dose: 15.0 mg/kg/injection, schedule: Q01DX001 (ip), vehicle: carboxymethylcellulose (CMC)
  T/C: 176 % of control and 180 % of control
dose: 15.0 mg/kg/injection, schedule: Q01DX001 (ip), vehicle: other
  T/C: 168 % of control and 191 % of control
dose: 22.5 mg/kg/injection, schedule: Q01DX001 (ip), vehicle: carboxymethylcellulose (CMC)
  T/C: 268 % of control
dose: 22.5 mg/kg/injection, schedule: Q01DX001 (ip), vehicle: other
  T/C: 234 % of control
dose: 33.0 mg/kg/injection, schedule: Q01DX001 (ip), vehicle: carboxymethylcellulose (CMC)
  T/C: 257 % of control
dose: 33.0 mg/kg/injection, schedule: Q01DX001 (ip), vehicle: other
  T/C: 269 % of control
dose: 50.0 mg/kg/injection, schedule: Q01DX Z (oral), vehicle: carboxymethylcellulose (CMC)
  T/C: 104 % of control
dose: 100.0 mg/kg/injection, schedule: Q01DX Z (oral), vehicle: carboxymethylcellulose (CMC)
  T/C: 107 % of control
dose: 200.0 mg/kg/injection, schedule: Q01DX Z (oral), vehicle: carboxymethylcellulose (CMC)
  T/C: 103 % of control
dose: 400.0 mg/kg/injection, schedule: Q01DX Z (oral), vehicle: carboxymethylcellulose (CMC)
  T/C: 98 % of control

## COc1cccc(CCNC(=O)CCN2C(=O)c3ccccc3C2=O)c1
dose: 50.0 mg/kg/injection, schedule: Q01DX001 (ip), vehicle: carboxymethylcellulose (CMC)
  T/C: 94 % of control
dose: 100.0 mg/kg/injection, schedule: Q01DX001 (ip), vehicle: carboxymethylcellulose (CMC)
  T/C: 96 % of control
[1]
  T/C: 100 % of control
dose: 400.0 mg/kg/injection, schedule: Q01DX001 (ip), vehicle: carboxymethylcellulose (CMC)
  T/C: 100 % of control

## CCC1(C2=CCCCC2)C(=O)NC(=S)NC1=O
[2]
  T/C: 102 % of control
[3]
  T/C: 106 % of control
[4]
  T/C: 104 % of control

## CC1([N+](=O)[O-])COP(=O)(N2CC2)OC1 (configuration not stated)
dose: 62.5 mg/kg/injection, schedule: Q01DX Z (ip), vehicle: carboxymethylcellulose (CMC)
  T/C: 87 % of control
dose: 125.0 mg/kg/injection, schedule: Q01DX Z (ip), vehicle: carboxymethylcellulose (CMC)
  T/C: 90 % of control

## Cc1cc(C(=O)CBr)c(CN2C(=O)c3ccccc3C2=O)c(=O)n1C
dose: 100.0 mg/kg/injection, schedule: Q01DX001 (ip), vehicle: saline with Tween-80
  T/C: 101 % of control

## COC(=O)c1ccccc1C[P+](c1ccccc1)(c1ccccc1)c1ccccc1
dose: 0.75 mg/kg/injection, schedule: Q01DX001 (ip), vehicle: saline with Tween-80
  T/C: 90 % of control
dose: 0.75 mg/kg/injection, schedule: Q01DX009 (ip), vehicle: saline
  T/C: 91 % of control
dose: 0.75 mg/kg/injection, schedule: Q04DX003 (ip), vehicle: saline
  T/C: 108 % of control
dose: 1.5 mg/kg/injection, schedule: Q01DX001 (ip), vehicle: saline with Tween-80
  T/C: 101 % of control
dose: 1.5 mg/kg/injection, schedule: Q01DX009 (ip), vehicle: saline
  T/C: 102 % of control
dose: 1.5 mg/kg/injection, schedule: Q04DX003 (ip), vehicle: saline
  T/C: 106 % of control
dose: 3.0 mg/kg/injection, schedule: Q01DX001 (ip), vehicle: saline with Tween-80
  T/C: 100 % of control and 106 % of control
dose: 3.0 mg/kg/injection, schedule: Q01DX009 (ip), vehicle: saline
  T/C: 94 % of control
dose: 3.0 mg/kg/injection, schedule: Q04DX003 (ip), vehicle: saline
  T/C: 116 % of control
dose: 3.12 mg/kg/injection, schedule: Q01DX009 (ip), vehicle: saline
  T/C: 100 % of control and 106 % of control
dose: 6.0 mg/kg/injection, schedule: Q01DX001 (ip), vehicle: saline with Tween-80
  T/C: 101 % of control
dose: 6.25 mg/kg/injection, schedule: Q01DX009 (ip), vehicle: saline with Tween-80
  T/C: 97 % of control and 111 % of control
dose: 6.25 mg/kg/injection, schedule: Q01DX009 (ip), vehicle: saline
  T/C: 100 % of control and 91 % of control
dose: 12.5 mg/kg/injection, schedule: Q04DX002 (ip), vehicle: Klucel (hydroxypropylcellulose) (HPC)
  T/C: 102 % of control
dose: 25.0 mg/kg/injection, schedule: Q01DX001 (ip), vehicle: saline with Tween-80
  T/C: 98 % of control
dose: 25.0 mg/kg/injection, schedule: Q04DX002 (ip), vehicle: Klucel (hydroxypropylcellulose) (HPC)
  T/C: 88 % of control
dose: 25.0 mg/kg/injection, schedule: Q04DX002 (ip), vehicle: saline with Tween-80
  T/C: 104 % of control and 88 % of control
dose: 50.0 mg/kg/injection, schedule: Q01DX001 (ip), vehicle: saline with Tween-80
  T/C: 106 % of control
dose: 50.0 mg/kg/injection, schedule: Q04DX002 (ip), vehicle: Klucel (hydroxypropylcellulose) (HPC)
  T/C: 102 % of control

## C/C(=C/CO)CC/C=C(\C)CC/C=C(\C)CCC1OC1(C)C (configuration not stated)
dose: 100.0 mg/kg/injection, schedule: Q01DX001 (ip), vehicle: saline
  T/C: 92 % of control
dose: 200.0 mg/kg/injection, schedule: Q01DX001 (ip), vehicle: saline
  T/C: 96 % of control
dose: 400.0 mg/kg/injection, schedule: Q01DX001 (ip), vehicle: saline
  T/C: 102 % of control

## Cc1ccc(NC(=O)COc2ccc(C)cc2C)cc1
dose: 100.0 mg/kg/injection, schedule: Q04DX002 (ip), vehicle: gum acacia
  T/C: 95 % of control
dose: 200.0 mg/kg/injection, schedule: Q04DX002 (ip), vehicle: gum acacia
  T/C: 89 % of control
